Test results published in patent publication US9884063B2, “Amido-substituted azole compounds” (Bayer Pharma Aktiengesellschaft, priority 2014, dated 2018).

Biological target: T1, TNKS2 (Homo sapiens, UniProt Q9H2K2)
T1 sequence (Q9H2K2 1-1166): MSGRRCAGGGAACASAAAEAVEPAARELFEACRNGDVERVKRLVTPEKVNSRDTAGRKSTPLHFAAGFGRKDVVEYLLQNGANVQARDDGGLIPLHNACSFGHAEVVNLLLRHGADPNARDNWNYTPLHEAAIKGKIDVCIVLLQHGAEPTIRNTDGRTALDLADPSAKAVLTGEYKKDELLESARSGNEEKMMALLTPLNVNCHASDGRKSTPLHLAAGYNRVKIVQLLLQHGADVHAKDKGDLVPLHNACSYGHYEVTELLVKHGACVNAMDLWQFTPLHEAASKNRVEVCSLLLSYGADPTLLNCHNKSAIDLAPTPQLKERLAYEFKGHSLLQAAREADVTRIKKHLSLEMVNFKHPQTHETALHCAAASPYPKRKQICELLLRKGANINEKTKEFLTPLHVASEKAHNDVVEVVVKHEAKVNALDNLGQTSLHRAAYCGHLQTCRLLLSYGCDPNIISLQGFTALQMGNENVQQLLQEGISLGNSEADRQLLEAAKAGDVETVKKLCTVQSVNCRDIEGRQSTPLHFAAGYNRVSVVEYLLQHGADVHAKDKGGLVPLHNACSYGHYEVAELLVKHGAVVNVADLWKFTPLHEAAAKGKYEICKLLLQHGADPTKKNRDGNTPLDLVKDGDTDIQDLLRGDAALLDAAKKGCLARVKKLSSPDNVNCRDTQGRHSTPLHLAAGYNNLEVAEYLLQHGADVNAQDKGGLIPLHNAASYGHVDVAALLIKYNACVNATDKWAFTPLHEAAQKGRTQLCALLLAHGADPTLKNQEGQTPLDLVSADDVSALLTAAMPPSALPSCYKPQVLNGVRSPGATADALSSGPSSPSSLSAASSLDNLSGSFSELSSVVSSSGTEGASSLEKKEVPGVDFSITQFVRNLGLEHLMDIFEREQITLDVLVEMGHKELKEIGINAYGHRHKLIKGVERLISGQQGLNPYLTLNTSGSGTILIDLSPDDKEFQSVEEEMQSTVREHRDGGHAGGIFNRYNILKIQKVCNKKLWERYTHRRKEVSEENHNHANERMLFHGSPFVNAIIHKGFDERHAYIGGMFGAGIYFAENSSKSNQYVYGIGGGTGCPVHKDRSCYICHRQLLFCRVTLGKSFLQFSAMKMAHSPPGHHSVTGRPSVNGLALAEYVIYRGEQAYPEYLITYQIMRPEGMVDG
Experiment: Modified TNKS2 Assay 3 (BPS kit #80578, biotin-NAD+, 96 well)
Assay type: biochemical
Conditions: human TNKS2, BPS kit #80578, 96 well
Procedure: The potency of the compounds against human TNKS2 according to the invention was assessed using a commercially available biotin/streptavidin binding assay kits from BPS Bioscience, San Diego, USA (Catalog #80578 for TNKS2). The incorporation of a biotin-labeled NAD+ during the […] catalyzed ribosylation of a suitable protein substrate was detected using with a streptavidin-HRP coupled chemi-luminescent readout. The intensity of the readout signal is proportional to the incorporated NAD^+. Inhibition of TNKS2 leads to a decreased incorporation of NAD^+ and consequently to a lower readout signal intensity in the corresponding TNKS2 assays. The concentration of a test compound that inhibits the enzyme activity by 50% (corresponds to half of the normed readout signal intensity) is reported as IC50. The assay conducted in a 96 well MTP format according to the manufacturer's protocol and using a BMG Pherastar MTP reader [BMG-Labtech, Offenburg, Germany].

Compound: CNC(=O)c1nc[nH]c1C(=O)Nc1ccc(NC(=O)c2cc(OC)c(OC)cc2Cl)cc1 [Example 240, N^5-{4-[(2-chloro-4,5-dimethoxybenzoyl)amino]phenyl}-N^4-methyl-1H-imidazole-4,5-dicarboxamide]
- IC50: 30 nM

Compound: CNC(=O)c1nc[nH]c1C(=O)Nc1ccc(NC(=O)c2c(F)cc(F)cc2Cl)cc1 [Example 118, N^5-{4-[(2-chloro-4,6-difluorobenzoyl)amino]phenyl}-N^4-methyl-1H-imidazole-4,5-dicarboxamide]
- IC50: 230 nM

Compound: CC1CCCN(CCNC(=O)c2[nH]cnc2C(=O)Nc2ccc(NC(=O)c3ccc(F)cc3Cl)cc2)C1 (centres unmarked) [Example 208, N^4-{4-[(2-chloro-4-fluorobenzoyl)amino]phenyl}-N^5-[2-(3-methylpiperidin-1-yl)ethyl]-1H-imidazole-4,5-dicarboxamide]
- IC50: 3 nM

Compound: CNC(=O)c1nc[nH]c1C(=O)Nc1ccc(NC(=O)c2cc(F)c(F)cc2Cl)cc1 [Example 242, N^5-{4-[(2-chloro-4,5-difluorobenzoyl)amino]phenyl}-N^4-methyl-1H-imidazole-4,5-dicarboxamide]
- IC50: 120 nM

Compound: COCCNC(=O)c1[nH]cnc1C(=O)Nc1ccc(NC(=O)c2ccc(F)cc2Cl)cc1 [Example 130, N^4-{4-[(2-chloro-4-fluorobenzoyl)amino]phenyl}-N^5-(2-methoxyethyl)-1H-imidazole-4,5-dicarboxamide]
- IC50: 170 nM

Compound: CNC(=O)c1nc[nH]c1C(=O)Nc1ccc(NC(=O)c2ccc(C)cc2Cl)cc1 [Example 244, N^5-{4-[(2-chloro-4-methylbenzoyl)amino]phenyl}-N^4-methyl-1H-imidazole-4,5-dicarboxamide]
- IC50: 30 nM

Compound: O=C(Nc1ccc(NC(=O)c2nc[nH]c2C(=O)NC2CCOC2)cc1)c1ccc(F)cc1Cl (centres unmarked) [Example 236, N^4-{4-[(2-chloro-4-fluorobenzoyl)amino]phenyl}-N^5-(tetrahydrofuran-3-yl)-1H-imidazole-4,5-dicarboxamide]
- IC50: 80 nM

Compound: CC1CCN(CCNC(=O)c2nc[nH]c2C(=O)Nc2ccc(NC(=O)c3ccc(F)cc3Cl)cc2)CC1 [Example 126, N^5-{4-[(2-chloro-4-fluorobenzoyl)amino]phenyl}-N^4-[2-(4-methylpiperidin-1-yl)ethyl]-1H-imidazole-4,5-dicarboxamide]
- IC50: 1 nM

Compound: O=C(Nc1ccc(NC(=O)c2nc[nH]c2C(=O)NCCN2CCCC(F)C2)cc1)c1ccc(F)cc1Cl (centres unmarked) [Example 226, N^4-{4-[(2-chloro-4-fluorobenzoyl)amino]phenyl}-N^5-[2-(3-fluoropiperidin-1-yl)ethyl]-1H-imidazole-4,5-dicarboxamide]
- IC50: 0.9 nM

Compound: O=C(NCCN1CCCCC1)c1nc[nH]c1C(=O)Nc1ccc(NC(=O)c2c(F)cc(F)cc2Cl)cc1 [Example 119, N^5-{4-[(2-chloro-4,6-difluorobenzoyl)amino]phenyl}-N^4-[2-(piperidin-1-yl)ethyl]-1H-imidazole-4,5-dicarboxamide]
- IC50: < 0.5 nM

Compound: CNC(=O)c1nc[nH]c1C(=O)Nc1ccc(NC(=O)c2ccc(F)cc2Cl)cc1 [Example 12, N^5-{4-[(2-chloro-4-fluorobenzoyl)amino]phenyl}-N^4-methyl-1H-imidazole-4,5-dicarboxamide]
- IC50: 60 nM

Compound: O=C(Nc1ccc(NC(=O)c2[nH]cnc2C(=O)NCC(F)(F)F)cc1)c1ccc(F)cc1Cl [Example 30, N^4-{4-[(2-chloro-4-fluorobenzoyl)amino]phenyl}-N^5-(2,2,2-trifluoroethyl)-1H-imidazole-4,5-dicarboxamide]
- IC50: 130 nM

Compound: CNC(=O)c1nc[nH]c1C(=O)Nc1ccc(NC(=O)c2ccc(F)cc2Cl)nc1 [Example 16, N^5-{6-[(2-chloro-4-fluorobenzoyl)amino]pyridin-3-yl}-N^4-methyl-1H-imidazole-4,5-dicarboxamide]
- IC50: 40 nM

Compound: NC(=O)c1nc[nH]c1C(=O)Nc1ccc(NC(=O)c2ccc(F)cc2Cl)cc1 [Example 121]
- IC50: 110 nM
